Data: patent US6528655B1, “Aromatic derivatives with HIV integrase inhibitory properties” (Pharmacor, Inc., priority 2000, dated 2003)
pIC50: −log10 of the molar value. Read-outs that look alike come from different tables or passages of the source.

Molecular target: HIV-1 integrase (Human immunodeficiency virus type 1 group M subtype B, UniProt P04585)
Assay: HIV-1 integrase inhibition assay (radiolabeled duplex substrate corresponding to the U5 end of the HIV LTR)
Assay type: biochemical
Procedure: For the purpose of Table 1 to 4, the HIV-1 integrase inhibition assay was carried out following a known procedure (Burke, Jr. T. R. et al., J. Med. Chem. 38, 4171-4178 (1995)). A suitable radiolabeled duplex substrate corresponding to the U5 end of the HIV LTR was used.
For the purposes of Table 1 to 4 the HIV-1 integrase inhibition assay was based on a known procedure (Hazuda, D. J. et al., Nucleic Acids Res. 22 1121-1122 (1994)).

[1] = Table 2, compounds of formula III′, read-out: IC50

Row | SMILES | pIC50 | pIC50 [1]
1 | CC(C)(C)OC[C@H](NC(=O)c1cc(O)c(O)c(O)c1)C(=O)NCCc1ccc(O)c(O)c1 [Example 43, N-[Nα-(3,4,5-Trihydroxybenzoyl)-O-tert-butyl-L-seryl]dopamine] | 6.82 | –
2 | COc1ccc(OC)c(C=CC(=O)N[C@@H](COC(C)(C)C)C(=O)NCCc2ccc(O)c(O)c2)c1 [Example 44, N-[Nα-(2,5-Dimethoxycinnamoyl)-O-tert-butyl-L-seryl]dopamine] | < 5.00 | –
3 | O=C(N[C@@H](CO)C(=O)NCCc1ccc(O)c(O)c1)c1cc(O)c(O)c(O)c1 [Example 45, N-[Nα-(3,4,5-Trihydroxybenzoyl)-L-seryl]dopamine] | 6.35 | –
4 | COc1ccc(OC)c(C=CC(=O)N[C@@H](CO)C(=O)NCCc2ccc(O)c(O)c2)c1 [Example 46, N-[Nα-(2,5-Dimethoxycinnamoyl)-L-seryl]dopamine] | < 5.00 | –
5 | Cc1ccc(C(NC(=O)CC[C@H](NC(=O)/C=C/c2ccc(O)c(O)c2)C(=O)NCCc2ccc(O)c(O)c2)(c2ccccc2)c2ccccc2)cc1 [Example 48, N-(Nα-Caffeoyl-Nδ-methyltrityl-L-glutaminyl)dopamine] | 5.94 | –
6 | Cc1ccc(C(NC(=O)CC[C@H](NC(=O)c2ccc(O)c(O)c2)C(=O)NCCc2ccc(O)c(O)c2)(c2ccccc2)c2ccccc2)cc1 [Example 49, N-[Nα-(3,4-Dihydroxybenzoyl)-Nδ-methyltrityl-L-glutaminyl]dopamine] | 5.89 | –
7 | Cc1ccc(C(NC(=O)CC[C@H](NC(=O)/C=C/c2cccc([N+](=O)[O-])c2)C(=O)NCCc2ccc(O)c(O)c2)(c2ccccc2)c2ccccc2)cc1 [Example 50, N-[Nα-(3-Nitrocinnamoyl)-Nδ-methyltrityl-L-glutaminyl]dopamine] | 5.40 | –
8 | O=C(N[C@@H](Cc1cn(C(c2ccccc2)(c2ccccc2)c2ccccc2)cn1)C(=O)NCCc1ccc(O)c(O)c1)c1ccc(O)cc1 [Example 52, N-[Nα-(4-Hydroxybenzoyl)-Nτ-trityl-L-histidinyl]dopamine] | 5.48 | –
9 | CC(C)(C)OC(=O)NCCC[C@H](NC(=O)c1cc(O)c(O)c(O)c1)C(=O)NCCc1ccc(O)c(O)c1 [Example 54, N-[Nα-(3,4,5-Trihydrozybenzoyl)-Nδ-butoxycarbonyl-L-ornithyl]dopamine] | 6.43 | –
10 | O=C(NCCCC[C@H](NC(=O)c1cc2cccc(O)c2cc1O)C(=O)OCc1ccccc1)c1cc2cccc(O)c2cc1O [Example 55, Nα,Nε-di-(3,5-Dihydroxynaphthyl-2-carbonyl)-L-L-lye Benzyl Ester] | – | < 5.30
11 | O=C(NCCCC[C@H](NC(=O)c1cc2cccc(O)c2cc1O)C(=O)NO)c1cc2cccc(O)c2cc1O [Example 56, Nα,Nε-di-(3,5-Dihydroxynaphthyl-2-carbonyl)-L-lysine hydroxylamide] | 5.28 | –
12 | O=C(N[C@@H](Cc1ccc(O)cc1)C(=O)NCCc1ccc(O)c(O)c1)c1cc2cccc(O)c2cc1O [Example 57, N-[Nα-(3,5-Dihydroxynaphthyl-2-carbonyl)-L-tyrosyl]dopamine] | 5.96 | –
13 | O=C(N[C@@H](Cc1ccc(O)cc1)C(=O)NCCc1ccc(O)c(O)c1)c1cc(O)c2cccc(O)c2n1 [Example 58, N-[Nα-(4,8-Dihydroxyquinoline-2-carbonyl)-L-tyrosyl]dopamine] | 5.92 | –
14 | O=C(N[C@@H](Cc1c[nH]c2ccccc12)C(=O)NCCc1ccc(O)c(O)c1)c1cc2cccc(O)c2cc1O [Example 59, N-[Nα-(3,5-Dihydroxynaphthyl-2-carbonyl)-L-tryptophanyl]dopamine] | 6.21 | –
15 | O=C(N[C@@H](Cc1ccc(O)c(O)c1)C(=O)NCCc1ccc(O)c(O)c1)c1cc2cccc(O)c2cc1O [Example 60, N-[Nα-(3,5-Dihydroxynaphthyl-2-carbonyl)-L-3,4-dihydroxyphenylalanyl]dopamine] | 5.74 | –
16 | NC(=O)C[C@H](NC(=O)c1cc2cccc(O)c2cc1O)C(=O)NCCc1ccc(O)c(O)c1 [Example 61, N-[Nα-(3,5-Dihydroxynaphthyl-2-carbonyl)-L-asparagyl]dopamine] | < 5.30 | –
17 | CC(C)(C)OC(=O)C[C@H](NC(=O)c1cc(O)c2cccc(O)c2n1)C(=O)NCCc1ccc(O)c(O)c1 [Example 62, N-[Nα-(4,8-Dihydroxyquinoline-2-carbonyl)-Oγ-ted-butyl-L-aspartyl]dopamine] | < 5.30 | –
18 | O=C(C[C@H](NC(=O)c1cc(O)c2cccc(O)c2n1)C(=O)NCCc1ccc(O)c(O)c1)NC(c1ccccc1)(c1ccccc1)c1ccccc1 [Example 64, N-[Nα-(4,8-Dihydroxyquinoline-2-carbonyl)-Nγ-trityl-L-asparagyl]dopamine] | 5.15 | –
19 | O=C(NCCCC[C@H](NC(=O)c1cc2cccc(O)c2cc1O)C(=O)NCCc1ccc(O)c(O)c1)c1cc2cccc(O)c2cc1O [Example 66, N-[Nα,Nε-di-(3,5-Dihydroxynaphthyl-2-carbonyl)-L-lysyl]dopamine] | < 5.30 | –
20 | NC(=O)C[C@H](NC(=O)c1cc(O)c2cccc(O)c2n1)C(=O)NCCc1ccc(O)c(O)c1 [Example 67, N-[Nα-(4,8-Dihydroxyquinoline-2-carbonyl)-L-asparagyl]dopamine] | < 5.30 | –
21 | O=C(N[C@@H](Cc1ccc(O)cc1)C(=O)NCc1ccc(O)c(O)c1)c1cc(O)c2cccc(O)c2n1 [Example 68, N-[Nα-(4,8-Dihydroxyquinoline-2-carbonyl)-L-tyrosyl]-3,4-dihydroxybenzylamine] | < 5.30 | –
22 | Cc1ccc(C(NC(=O)CC[C@H](NC(=O)c2cc(O)c3cccc(O)c3n2)C(=O)NCc2ccc(O)c(O)c2)(c2ccccc2)c2ccccc2)cc1 [Example 69, N-[Nα-(4,8-Dihydroxyquinoline-2-carbonyl)-Nδ-methyltrityl-L-glutaminyl]-3,4-dihydroxybenzylamine] | 6.46 | –
23 | O=C(N[C@@H](Cc1cn(C(c2ccccc2)(c2ccccc2)c2ccccc2)cn1)C(=O)NCc1ccc(O)c(O)c1)c1cc(O)c2cccc(O)c2n1 [Example 70, N-[Nα-(4,8-Dihydroxyquinoline-2-carbonyl)-Nτ-trityl-L-histidinyl]-3,4-dihydroxybenzylamine] | 6.39 | –
24 | Cc1ccc(C(c2ccccc2)(c2ccccc2)n2cnc(C[C@H](NC(=O)c3cc(O)c4cccc(O)c4n3)C(=O)NCCc3ccc(O)c(O)c3)c2)cc1 [Example 71, N-[Nα-(4,8-Dihydroxyquinoline-2-carbonyl)-Nτ-methyltrityl-L-histidinyl]dopamine] | – | 6.22
25 | CC(C)(C)OC[C@H](NC(=O)c1cc(O)c2cccc(O)c2n1)C(=O)NCCc1ccc(O)c(O)c1 [Example 72, N-[Nα-(4,8-Dihydroxyquinoline-2-carbonyl)-O-tert-butyl-L-seryl]dopamine] | < 5.00 | –
26 | O=C(N[C@@H](Cc1ccc(O)cc1)C(=O)NNC(=O)c1ccccc1O)c1cc(O)c2cccc(O)c2n1 [Example 73, N1-[Nα-(4,8-Dihydroxyquinoline-2-carbonyl)-L-tyrosyl]-N2-(2-hydroxybenzoyl)-hydrazine] | 5.66 | –
27 | O=C(/C=C/c1ccc(O)c(O)c1)N[C@@H](Cc1ccc(O)cc1)C(=O)NNC(=O)c1ccccc1O [Example 74, N1-(Nα-Caffeoyl-L-tyrosyl)-N2-(2-hydroxybenzoyl)-hydrazine] | 6.09 | –
28 | O=C(/C=C/c1ccc(O)c(O)c1)N[C@@H](Cc1c[nH]c2ccccc12)C(=O)NNC(=O)c1ccccc1O [Example 75, N1-(Nα-Caffeoyl-L-tryptophanyl)-N2-(2-hydroxybenzoyl)-hydrazine] | 5.92 | –
